Test results as given in patent US10647690B2, “2,3-epoxy succinyl derivative, preparation method and use thereof” (Institute of Pharmacology and Toxicology Academy of …, priority 2016, dated 2020).
Like-named read-outs stand apart in the source and are kept apart here.

Molecular target: T1, Cathepsin K (Homo sapiens, UniProt P43235)
T1 construct: purchased Biovision K150-100
T1 sequence (P43235 115-329): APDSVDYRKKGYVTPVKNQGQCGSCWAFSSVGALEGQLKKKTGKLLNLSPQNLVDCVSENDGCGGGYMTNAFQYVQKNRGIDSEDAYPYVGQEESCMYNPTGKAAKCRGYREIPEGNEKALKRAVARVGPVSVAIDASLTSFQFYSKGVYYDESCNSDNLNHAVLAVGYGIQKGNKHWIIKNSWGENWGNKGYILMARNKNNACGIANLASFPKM
Test: Preliminary screening of Cathepsin K (Cathepsin K Inhibitor Screening Kit K150-100, Biovision)
Assay type: biochemical
Conditions: relative inhibition rate vs 10 μM FF-FMK control
Description: 1. Method for preliminary screening of Cathepsin K:
Preliminary screening of Cathepsin K was performed by using Cathepsin K Inhibitor Screening Kit (Product No. K150-100) from Biovision Company.
1.1.1 Preparation of Cathepsin K enzyme solution: Cathepsin K enzyme (40 μl) and Cathepsin K reagent (80 μl) were added to Cathepsin K buffer (3.88 ml), and were mixed well, to prepare Cathepsin K enzyme solution with a volume of 4 ml, which was placed on ice for further use.
1.1.2 Preparation of a compound solution: different compounds were separately weighed and dissolved in DMSO (methyl sulfoxide), to prepare solutions at a concentration of 30 mM as stock solutions, and for some insoluble compounds, they were prepared into solutions at a concentration of 10 mM as stock solutions; the 30 mM and 10 mM compound stock solutions were diluted to 1 mM and 100 μM DMSO solutions, respectively; 1 mM and 100 μM compound DMSO solutions (2 μl) were separately added to CTSK buffer (18 μl), to prepare compound solutions at a final concentration of 100 μM and 10 μM, respectively, wherein the concentration of DMSO was 10%.
1.1.3 Preparation of Cathepsin K substrate solution: Cathepsin K substrate (160 μl) was added to Cathepsin K buffer (3.44 ml), and mixed homogeneously, to prepare Cathepsin K substrate solution with a volume of 3.6 ml, which was placed on ice for further use.
1.2 Method for screening Cathepsin K inhibitor: Cathepsin K enzyme solution (prepared in Item 1.1.1) was added to a 384-well plate (ProxiPlate-384 Plus, Perkinelmer) at 10 μl/well, and centrifuged at 1000 rpm for 1 min; the compound solution (prepared in Item 1.1.2) was then added at 2 µl/well, and centrifuged at 1000 rpm for 1 min, and every concentration was repeated in two wells; the plate was placed in a 25° C. incubator for 15 min; Cathepsin K substrate solution was then added at 8 μl/well, and centrifuged at 1000 rpm for 1 min; and finally, the fluorescence signal was read in Enspire, wherein the exciting light was at a wavelength of 400 nm, the emitting light was at a wavelength of 505 nm, and continuous reading was performed at 37° C. for 120 min.
1.3 Data analysis: the slope (S) for all the samples was calculated by ΔRFU (RFU2−RFU1) and time ΔT (T2−T1), including negative control (Enzyme Control, EC) and positive control (Inhibitor Control, IC: 10 μM FF-FMK), and the calculation formula was as followed: Relative inhibition rate %=(SEC−SS)/(SEC−SIC)*100.

[1] = 1 μM compound, replicate 1, read-out: Inhibition % (1 μM) replicate 1
[2] = 1 μM compound, replicate 2, read-out: Inhibition % (1 μM) replicate 2
[3] = 10 μM compound, replicate 1, read-out: Inhibition % (10 μM) replicate 1
[4] = 10 μM compound, replicate 2, read-out: Inhibition % (10 μM) replicate 2

inhibition at 1 µM [1]	inhibition at 1 µM [2]	inhibition at 10 µM [3]	inhibition at 10 µM [4]	Inhibition % (1 μM) replicate 1 (1 μM compound, replicate 1)	Inhibition % (1 μM) replicate 2 (1 μM compound, replicate 2)	Inhibition % (10 μM) replicate 1 (10 μM compound, replicate 1)	Inhibition % (10 μM) replicate 2 (10 μM compound, replicate 2)	SMILES
16%	-4.45%	29.7%	19.5%					CCOC(=O)[C@H]1O[C@@H]1C(=O)N[C@@H](CSCc1ccccc1)C(=O)N1CCCC1 [Compound 22, (2s, 3s)-2-ethoxycarbonyl-3-[2-[(s)-3-benzylthio-1-carbonyl-1-(tetrahydropyrrolyl)propane]formylamino]epoxysuccinic acid]
16.1%	37.7%	70.1%	63%					CCOC(=O)[C@H]1O[C@@H]1C(=O)N[C@@H](CSCc1ccccc1)C(=O)N1CCC(c2ccccc2)CC1 [Compound 23, (2s, 3s)-2-ethoxycarbonyl-3-[2-[(s)-3-benzylthio-1-carbonyl-1-(4-phenylpiperidinyl)propane]formylamino]epoxysuccinic acid]
				35.73%	44.11%	67.87%	63.25%	CCOC(=O)[C@H]1O[C@@H]1C(=O)N[C@H](CSCc1ccccc1)C(=O)NCCc1ccc(OC)cc1 [Compound 26, (2s, 3s)-2-ethoxycarbonyl-3-[2-[(s)-3-benzylthio-1-carbonyl-1-(4-methoxyphenylethylamino)propane]formylamino]epoxysuccinic acid]
31.6%	26.9%	29.6%	31.7%					CCOC(=O)[C@H]1O[C@@H]1C(=O)N[C@@H](CCSC)C(=O)NCC(C)(C)C [Compound 30, (2s, 3s)-2-ethoxycarbonyl-3-[2-[(s)-4-methylthio-1-carbonyl-1-(neopentylamino)butane]formylamino]epoxysuccinic acid]
30.5%	36.6%	44.1%	45.4%					CCOC(=O)[C@H]1O[C@@H]1C(=O)N[C@@H](CCSC)C(=O)NC(C)(C)CC [Compound 31, (2s, 3s)-2-ethoxycarbonyl-3-[2-[(s)-4-methylthio-1-carbonyl-1-(tert-pentylamino)butane]formylamino]epoxysuccinic acid]
37.5%	38.7%	36.2%	40.6%					CCOC(=O)[C@H]1O[C@@H]1C(=O)N[C@@H](CCSC)C(=O)NC(C)CC (some centres unmarked) [Compound 32]
36.6%	33.1%	34.9%	36%					CCOC(=O)[C@H]1O[C@@H]1C(=O)N[C@@H](CCSC)C(=O)NCCc1ccc(C)cc1 [Compound 33, (2s, 3s)-2-ethoxycarbonyl-3-[2-[(s)-4-methylthio-1-carbonyl-1-(p-methylphenylethylamino)butane]formylamino]epoxysuccinic acid]
37.8%	22.8%	72%	61.1%					CCOC(=O)[C@H]1O[C@@H]1C(=O)N[C@@H](CCSC)C(=O)N1CCCCC1CC (some centres unmarked) [Compound 35, (2s, 3s)-2-ethoxycarbonyl-3-[2-[(s)-4-methylthio-1-carbonyl-1-(2-ethylpiperidinyl)butane]formylamino]epoxysuccinic acid]
17.5%	21.6%	61.4%	63.5%					CCOC(=O)[C@H]1O[C@@H]1C(=O)N[C@@H](CCSC)C(=O)N1CCSCC1 [Compound 36, (2s, 3s)-2-ethoxycarbonyl-3-[2-[(s)-4-methylthio-1-carbonyl-1-(thiomorpholinyl)butane]formylamino]epoxysuccinic acid]
36.8%	37.9%	44.3%	41.4%					CCOC(=O)[C@H]1O[C@@H]1C(=O)N[C@@H](CCSC)C(=O)N1CCSC1 [Compound 38, (2s, 3s)-2-ethoxycarbonyl-3-[2-[(s)-4-methylthio-1-carbonyl-1-(tetrahydrothiazolyl)butane]formylamino]epoxysuccinic acid]
32.1%	30.8%	64.2%	61%					CCOC(=O)[C@H]1O[C@@H]1C(=O)N[C@@H](CCSC)C(=O)N1CC(C)CC(C)C1 (some centres unmarked) [Compound 41, (2s, 3s)-2-ethoxycarbonyl-3-[2-[(s)-4-methylthio-1-carbonyl-1-(3,5-dimethylpiperidinyl)butane]formylamino]epoxysuccinic acid]
